Values joined by “and” are separate entries in the source; they are usually repeats but may differ in a detail not shown here. Equal entries are not always repeated. Where two headings read alike, the source gives them in different places.
Legend:
[1] = test system: SARS-CoV-2 B.1.351 (Beta); experiment: microbe, parasite or virus in culture; assay type: cell-based; details: SA
SARS-CoV-2 VOCs = experiment: SARS-CoV-2 VOC infection of Calu-3 cells, summary over all VOCs; assay type: cell-based; details: Severe acute respiratory syndrome coronavirus 2, range over VOCs
[2] = test system: SARS-CoV-2 (USA-WA1/2020, lineage A); design: species or system K18-hACE2 mice; details: mouse, in vivo
SARS-CoV-2 (VIDO) [3] = assay type: cell-based; design: plaque assay titre, Figure 2c: unit not given beside the values; details: for reduction of viral titre (plaque assay): supernatant of infected Calu-3 cells, vs DMSO-treated infected control; for plaque assay titre, Figure 2c: replicate columns
[4] = test system: SARS-CoV-2 B.1.617.2 (Delta); experiment: K18-hACE2 mice infected with Delta VOC, IHC of nucleocapsid in lung; assay type: in vivo
Protocol: To detect viral antigen, sections were labelled with anti-SARS-CoV-2 nucleocapsid protein rabbit IgG monoclonal antibody (GeneTex; GTX635679) at a 1:5,000 dilution and processed using a Leica Bond Max automated IHC stainer. Leica Bond Polymer Refine Detection (Leica; DS9800) with DAB was used as the chromogen. Image acquisition was performed using a Roche Ventana DP200 slide scanner. Digital image analysis was performed using QuPath software[65],[66] v.0.2.3. Tissues were annotated to include all available lung tissue or all brain tissue excluding cerebellum, as cerebellar tissue was not available for all mice. Following annotation, automated detection was performed using automated SLIC superpixel segmentation with a DAB mean detection threshold of 0.18892.

[5] = test system: SARS-CoV-2 (USA-WA1/2020, lineage A); assay type: in vivo, K18-hACE2 mice
SARS-CoV-2 (VIDO) [6] = experiment: microbe, parasite or virus in culture; assay type: cell-based; details: colonoids pretreated 3 h with 100 nM, infected 3 days, vs DMSO-treated
[7] = test system: SARS-CoV-2 B.1.617.2 (Delta); design: species or system K18-hACE2 mice; details: mouse, in vivo
[8] = test system: SARS-CoV-2 B.1.617.2 (Delta); experiment: microbe, parasite or virus in culture; assay type: cell-based; details: India
[9] = test system: SARS-CoV-2 B.1.617.2 (Delta); assay type: in vivo, K18-hACE2 mice; details: for PFU/g / PFU/mL: lung, plaque assay, N-0385 12h PI, individual mice
[10] = test system: SARS-CoV-2 B.1.1.7 (Alpha); experiment: microbe, parasite or virus in culture; assay type: cell-based; details: UK
mouse TMPRSS2 = mouse TMPRSS2 (Mus musculus, UniProt Q9JIQ8); experiment: cell-based
Sequence of mouse TMPRSS2 (Q9JIQ8 whole entry): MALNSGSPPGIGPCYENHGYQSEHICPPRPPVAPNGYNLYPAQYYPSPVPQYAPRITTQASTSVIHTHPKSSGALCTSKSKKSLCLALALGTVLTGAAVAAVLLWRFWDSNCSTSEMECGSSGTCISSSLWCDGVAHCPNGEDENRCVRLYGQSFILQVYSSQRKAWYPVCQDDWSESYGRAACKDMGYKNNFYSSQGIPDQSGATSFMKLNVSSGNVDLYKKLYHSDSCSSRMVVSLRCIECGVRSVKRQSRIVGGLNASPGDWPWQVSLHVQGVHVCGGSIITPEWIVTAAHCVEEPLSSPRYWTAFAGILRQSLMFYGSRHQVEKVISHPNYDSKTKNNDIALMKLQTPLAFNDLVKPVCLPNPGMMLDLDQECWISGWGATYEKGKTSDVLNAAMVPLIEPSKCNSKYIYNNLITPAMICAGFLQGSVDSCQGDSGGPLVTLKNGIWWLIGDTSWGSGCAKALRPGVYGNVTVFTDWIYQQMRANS

[11] = test system: SARS-CoV-2 (USA-WA1/2020, lineage A); experiment: K18-hACE2 mouse model of SARS-CoV-2, H&E histopathology of lung and brain; details: 8-day regimen
Protocol: For histological examination, mouse lungs and brains were collected directly after euthanasia and placed in 10% formalin for more than 72 h, after which tissues were embedded in paraffin. Tissue sections (4 μm) were analysed after staining with H&E and scored blinded by an anatomic pathologist. For lung, scores were applied based on the percentage of each tissue type (alveolus, vessels and so on) affected using the following criteria: (0) normal; (1) less than 10% affected; (2) 10–25% affected; (3) 26–50% affected; and (4) more than 50% affected[64]. Assessment of lung pathology in K18-hACE2 mice infected with the SARS-CoV-2 B.1.617.2 (Delta) VOC after single-dose treatment was performed on IHC sections counterstained with haematoxylin. For brains, histological scoring was assessed for perivascular inflammation using the most severely affected vessel and the following criteria: (0) no perivascular inflammation; (1) incomplete cuff one cell layer thick; (2) complete cuff one cell layer thick; (3) complete cuff two to three cells thick; and (4) complete cuff four or more cells thick. Necrotic cells in the neuroparenchyma were assessed per 0.237 mm^2 field using the most severely affected area and the following criteria: (0) no necrotic cells; (1) rare individual necrotic cells; (2) fewer than 10 necrotic cells; (3) 11 to 25 necrotic cells; (4) 26 to 50 necrotic cells; and (5) greater than 50 cells.

[12] = Cytotoxicity assay (Cell Titer-Glo 2.0) in Vero E6 cells; assay type: cell-based; details: African green monkey
Protocol: Calu-3 and Vero E6 cells (2500 or 10,000 cells for samples, 80–20,000 cells for standard curve) were seeded in 96-well plates. Following a 24-h incubation at 37 °C, 5% CO2, cells were washed with D-PBS and compounds added (10 µM) for an additional 24-h incubation. Cellular viability was assessed using Cell Titer-Glo 2.0 Cell Viability Assay (Promega) according to the manufacturer’s instructions. The number of viable cells was extrapolated using the standard curve. Cellular viability in Vero E6 cells was expressed relative (%) to vehicle-treated cells. Data are from four independent experiments (mean ± s.d.).

[13] = Figure S8 C, tissue plaque assay, Females, individual animals
[14] = Figure S8 C, tissue plaque assay, Males, individual animals
[15] = Males, Figure 5 Panel F, individual animals
[16] = females, Figure 5 Panel F, individual animals
[17] = individual mice, tissue at death or end-point

CS(=O)(=O)NC(CCC(N)=O)C(=O)NC(Cc1ccccc1)C(=O)NC(CCCNC(=N)N)C(=O)c1nc2ccccc2s1 (stereo not shown) [Compound N-0385, Ms-QFR-kbt]
infection, dose response Figure 3c (nucleocapsid) ([1]; log [C] (nM) 0.20412): 79.6793 and 91.7767 and 88.3707 and 72.9139 and 58.6745 | infection, dose response Figure 3d (dsRNA) ([1]; log [C] (nM) 0.20412): 63.8002 and 67.3054 and 60.7262 and 87.9301 and 97.1304 | infection, dose response Figure 3c (nucleocapsid) ([1]; log [C] (nM) 0.90309): 43.2222 and 77.2087 and 78.2089 and 72.2128 and 63.0729 | infection, dose response Figure 3d (dsRNA) ([1]; log [C] (nM) 0.90309): 54.6567 and 62.1742 and 66.7756 and 99.2713 and 89.1898 | infection, dose response Figure 3c (nucleocapsid) ([1]; log [C] (nM) 1.60206): 26.0524 and 35.9809 and 32.5888 and 37.5917 and 24.568 | infection, dose response Figure 3d (dsRNA) ([1]; log [C] (nM) 1.60206): 39.7311 and 51.7136 and 44.1381 and 59.5864 and 41.1574 | infection, dose response Figure 3c (nucleocapsid) ([1]; log [C] (nM) -0.49485): 80.9236 and 100 and 89.9432 and 52.6441 | infection, dose response Figure 3d (dsRNA) ([1]; log [C] (nM) -0.49485): 76.5319 and 75.7767 and 69.4582 and 92.7897 and 93.6397 | infection, dose response Figure 3c (nucleocapsid) ([1]; log [C] (nM) -1.19382): 96.6594 and 91.8391 and 98.1873 and 70.3455 | infection, dose response Figure 3d (dsRNA) ([1]; log [C] (nM) -1.19382): 75.3943 and 74.8717 and 100 and 96.2799 | EC50 (SARS-CoV-2 VOCs; read-out: EC50 against all VOCs, dsRNA staining): 2.6 to 26.5 nM | EC50 (SARS-CoV-2 VOCs; read-out: EC50 against all VOCs, nucleocapsid staining): 2.1 to 13.9 nM | average weight loss at 6 dpi [2]: 3% | survival [2]: 100% | survival to the end-point (14 dpi) [2]: 70% | weight gain at 6 dpi [2]: 1% | weight gain at time of death or the study end-point [2]: 2% | weight loss at the study end-point [2]: 3% | reduction of viral titre (plaque assay) (SARS-CoV-2 (VIDO) [3]; 40 nM): ~2 log | plaque assay titre, Figure 2c (SARS-CoV-2 (VIDO) [3]; 40 nM): 1000 (11×) and 22000 (2×) and 33000 and 132000 and 10000 (2×) and 33333 | reduction of viral titre (plaque assay) (SARS-CoV-2 (VIDO) [3]; 200 nM): ~2 log | plaque assay titre, Figure 2c (SARS-CoV-2 (VIDO) [3]; 200 nM): 1000 (8×) and 10000 (6×) and 20000 (2×) and 11111 and 40000 and 30000 | Num Positive events/mm^2 (nucleocapsid IHC, lung) ([4]; individual mice (f = female, m = male), single dose 12 hpi, 3 dpi, Fig. 6f, listed as n385): 2181.1 events/mm^2 and 5.047 events/mm^2 and 10.41 events/mm^2 and 9.171 events/mm^2 and 935.88 events/mm^2 and 0.9105 events/mm^2 and 3.523 events/mm^2 and 51.75 events/mm^2 and 3.842 events/mm^2 and 20.48 events/mm^2 | reduction in IHC viral staining in lung at 3 dpi ([4]; single dose at 12 hpi, vs saline-treated group): more than 50% | PFU/g [5, 13]: 0 PFU/g | PFU/mL [5, 13]: 0 PFU/mL | PFU/g [5, 14]: 0 PFU/g and 4852.94 PFU/g and 5882.35 PFU/g and 11764706 PFU/g | PFU/mL [5, 14]: 0 PFU/mL and 970.588 PFU/mL and 1176.47 PFU/mL and 2352941 PFU/mL | Average Plaques ([5]; Males, Figure 5 Panel F, at the Dilution Factor, individual animals): 53.25 and 0 | PFU/g [5, 15]: 2662500 PFU/g and 0 PFU/g | PFU/mL [5, 15]: 532500 PFU/mL and 0 PFU/mL | Average Plaques ([5]; endpoint plaque assay (Panel H), females, individual animals): 0 | PFU/g ([5]; endpoint plaque assay (Panel H), females, individual animals, tissue resuspended at 5ul/mg): 0 PFU/g | Average Plaques ([5]; endpoint plaque assay (Panel H), males, individual animals): 0 | PFU/g ([5]; endpoint plaque assay (Panel H), males, individual animals, tissue resuspended at 5ul/mg): 0 PFU/g | Average Plaques ([5]; females, Figure 5 Panel F, at the Dilution Factor, individual animals): 21 and 0 and 7.75 | PFU/g [5, 16]: 10500000 PFU/g and 0 PFU/g and 387500 PFU/g | PFU/mL [5, 16]: 2100000 PFU/mL and 0 PFU/mL and 77500 PFU/mL | infectious virus in the lung at the study end-point ([5]; intranasal once daily day −1 to day 2, 14 dpi): No infectious virus was detected | PFU/mL ([5]; mouse, in vivo): 0 PFU/mL | reduction of lung viral titres (plaque assay) at 3 dpi ([5]; mouse, in vivo): 97% | inhibition at 0.1 µM (SARS-CoV-2 (VIDO) [6]; Severe acute respiratory syndrome coronavirus 2, read-out: inhibition of SARS-CoV-2 infection in colonoids): > 99% | inhibition of SARS-CoV-2 infection in colonoids (SARS-CoV-2 (VIDO) [6]): complete inhibition | weight gain (six days after infection) [7]: 2% | weight loss (six days after infection) [7]: 5% | infection, dose response Figure 3c (nucleocapsid) ([8]; log [C] (nM) 0.20412): 60.9172 and 87.9076 and 85.6813 and 84.0612 | infection, dose response Figure 3d (dsRNA) ([8]; log [C] (nM) 0.20412): 68.4547 and 86.2131 and 100 | infection, dose response Figure 3d (dsRNA) ([8]; log [C] (nM) 3): 5.293 and 4.1962 | infection, dose response Figure 3c (nucleocapsid) ([8]; log [C] (nM) -0.49485): 94.4352 and 99.5627 and 82.7139 | infection, dose response Figure 3d (dsRNA) ([8]; log [C] (nM) -0.49485): 78.2794 and 100 | infection, dose response Figure 3c (nucleocapsid) ([8]; log [C] (nM) -1.19382): 98.0243 and 101.283 and 99.1734 and 90.3686 | infection, dose response Figure 3d (dsRNA) ([8]; log [C] (nM) -1.19382): 100 and 84.9713 | PFU/g ([9]; Females): 30000000 PFU/g and 0 PFU/g and 275000 PFU/g and 1000 PFU/g | PFU/mL ([9]; Females): 6000000 PFU/mL and 0 PFU/mL and 55000 PFU/mL and 200 PFU/mL | PFU/g ([9]; Males): 275000 PFU/g and 32500 PFU/g and 1750 PFU/g and 0 PFU/g | PFU/mL ([9]; Males): 55000 PFU/mL and 6500 PFU/mL and 350 PFU/mL and 0 PFU/mL | reduction in lung viral titres at 3 dpi ([9]; mouse, in vivo): more than 50% | infection, dose response Figure 3c (nucleocapsid) ([10]; log [C] (nM) -0.49485): 100.507 and 68.1892 and 93.9276 and 91.6566 and 100 | infection, dose response Figure 3d (dsRNA) ([10]; log [C] (nM) -0.49485): 68.6997 and 68.3556 and 77.9197 and 68.9 and 100 | infection, dose response Figure 3c (nucleocapsid) ([10]; log [C] (nM) -1.19382): 96.9973 and 100 and 88.1248 | infection, dose response Figure 3d (dsRNA) ([10]; log [C] (nM) -1.19382): 83.4401 and 68.4372 and 71.2209 and 84.9067 and 100 | IC50 (mouse TMPRSS2; Vero E6 cells transfected with mTMPRSS2, 24 h, mean ± SD, n = 3, read-out: mouse TMPRSS2 (mTmprss2) activity IC50): 12.3 ± 1.9 nM | IC50 (mouse TMPRSS2; mTMPRSS2, mean of independent experiments, Figure S1C, read-out: IC50 Mean): 12.3 nM | IC50 (mouse TMPRSS2; mTMPRSS2, single experiments N1-N3, Figure S1C, read-out: IC50 determined from independant experiments): 12.2 nM and 14.3 nM and 10.4 nM | Brain lesions (H&E) ([11]; N-0385: surviving mice, day 14): absent | Perivascular infiltrates in CNS score ([11]; individual mice, most severely affected vessel): 0 and 1 | Alveolar cells score [11, 17]: 2 ((2) 10–25% affected) and 1 ((1) <10% affected) and 0 | Alveolar edema score [11, 17]: 0 | Alveolar fibrin score [11, 17]: 0 | Fibrosis score [11, 17]: 2 ((2) 10–25% affected) and 1 ((1) <10% affected) and 0 | Interstitial infiltrates in lung score [11, 17]: 2 ((2) 10–25% affected) and 1 ((1) <10% affected) and 0 | Lymphoid hyperplasia score [11, 17]: 1 ((1) <10% affected) and 0 | Perivascular infiltrate in lung score [11, 17]: 3 ((3) 26–50% affected) and 1 ((1) <10% affected) and 0 | Type II pneumocyte hyperplasia score [11, 17]: 2 ((2) 10–25% affected) and 1 ((1) <10% affected) and 0 and 3 ((3) 26–50% affected) | viability at 24 h, 10 µM ([12]; 10 μM compound, 24 h, relative to vehicle (DMSO 0.01%), single experiments N1-N4, read-out: % Viability of Vero E6 cells): 127% | viability at 24 h, 10 µM ([12]; % Viability of Vero E6 cells): 100%
